Columns and labels:
Type in all cases: in vivo
[1] = test system: Johnsongrass (Sorghum halepense, SORHA); experiment: Pre-emerge greenhouse herbicide test, phytotoxicity rating; settings: 14 days after application, rating scale 0-100
In short: (§1)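 Seeds sown in sandy loam mix one day before track-sprayer application of compounds in acetone at 125–1000 g ai/ha (187 l/ha), then surface-watered to incorporate and bottom-watered. Visual rating 14 days after application on a 0–100 scale (0 = no damage, 100 = all plants dead).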

[2] = test system: barnyardgrass (Echinochloa crusgalli, ECHCG); experiment: as above; settings: 14 days after application, rating scale 0-100
In short: as §1

[3] = test system: common ragweed (Ambrosia artemisiifolia L., AMBEL); experiment: as above; settings: 14 days after application, rating scale 0-100
In short: as §1

[4] = test system: green foxtail (Setaria viridis, SETVI); experiment: as above; settings: 14 days after application, rating scale 0-100
In short: as §1

[5] = test system: ivyleaf morningglory (Ipomoea hederacea, IPOHE); experiment: as above; settings: 14 days after application, rating scale 0-100
In short: as §1

[6] = test system: lambsquarters (Chenopodium album, CHEAL); experiment: as above; settings: 14 days after application, rating scale 0-100
In short: as §1

[7] = test system: large crabgrass (Digitaria sanguinalis, DIGSA); experiment: as above; settings: 14 days after application, rating scale 0-100
In short: as §1

[8] = test system: redroot pigweed (Amaranthus retroflexus, AMARE); experiment: as above; settings: 14 days after application, rating scale 0-100
In short: as §1

[9] = test system: sicklepod (Cassia obtusifolia, CASOB); experiment: as above; settings: 14 days after application, rating scale 0-100
In short: as §1

[10] = test system: velvetleaf (Abutilon theophrasti, ABUTH); experiment: as above; settings: 14 days after application, rating scale 0-100
In short: as §1

[11] = test system: common ragweed (Ambrosia artemisiifolia L., AMBEL); experiment: Post-emerge greenhouse herbicide test, phytotoxicity rating; settings: 14 days after application
Description: A standard greenhouse herbicide activity screening system was used to evaluate the herbicidal efficacy and crop safety of these test compounds. Six broadleaf weed species including redroot pigweed (Amaranthus retroflexus, AMARE), velvetleaf (Abutilon theophrasti, ABUTH), sicklepod (Cassia obtusifolia, CASOB), ivyleaf morningglory (Ipomoea hederacea, IPOHE), lambsquarters (Chenopodium album, CHEAL) and common ragweed (Ambrosia artemisiifolia L., AMBEL) were used as test species. Four grass weed species including green foxtail (Setaria viridis, SETVI), barnyardgrass (Echinochloa crusgalli, ECHCG), Johnsongrass (Sorghum halepense, SORHA), and large crabgrass (Digitaria sanguinalis, DIGSA) were also used. In addition, three crop species, field corn (Zea mays L., var. Dekalb 535, CORN), soybean (Glycine max L., var. Pella 86, SOY), and upland rice (Oryza sp., var.Tebonnet, RICE) were included.
All test compounds were dissolved in acetone and applied to the test units in a volume of 187 l/ha. […] Plants were arranged on a shelf so that the top of the canopy (post-emerge) or top of the soil surface (pre-emerge) was 40-45 cm below the nozzle. Pressurized air was used to force the test solution through the nozzle as it was mechanically advanced (via electrically driven chain drive) over the top of all test plants/pots. This application simulates a typical commercial field herbicide application.
In the post-emerge test, a commercial non-ionic surfactant was also included (0.25% v/v) to enhance wetting of the leaf surfaces Qf target plants at rates ranging from 63 g ai/ha to 1000 g ai/ha. For post-emerge tests, seeds were planted 8-21 days prior to the test to allow emergence and good foliage development prior to application of the test substances. At the time of the post-emerge application, plants of all species were usually at the 2-3 leaf stage of development. Post-emerge test units were always bottom-watered.
At 14 days after application of the test materials, phytotoxicity ratings were recorded. A rating scale of 0-100 was used as previously described in Research Methods in Weed Science, 2nd edition, B. Truelove, Ed., Southern Weed Science Society, Auburn University, Auburn, Ala., 1977. Briefly, “0” corresponds to no damage and “100” corresponds to complete death of all plants in the test unit. This scale was used both to determine efficacy against weed species and damage to crop species. Herbicide activity data for various compounds of this invention, which are shown by compound number in Tables 1-9, are shown in Tables 13 and 14.

[12] = test system: Johnsongrass (Sorghum halepense, SORHA); experiment: as above; settings: 14 days after application
In short: (§2)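 Compounds in acetone with 0.25% v/v non-ionic surfactant were track-sprayed at 187 l/ha over plants at the 2-3 leaf stage, at 63 to 1000 g ai/ha. Pots were bottom-watered. Injury was scored visually 14 days later on a 0-100 scale, where 0 is no damage and 100 is complete plant death.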

[13] = test system: barnyardgrass (Echinochloa crusgalli, ECHCG); experiment: as above; settings: 14 days after application
In short: as §2

[14] = test system: green foxtail (Setaria viridis, SETVI); experiment: as above; settings: 14 days after application
In short: as §2

[15] = test system: ivyleaf morningglory (Ipomoea hederacea, IPOHE); experiment: as above; settings: 14 days after application
In short: as §2

[16] = test system: lambsquarters (Chenopodium album, CHEAL); experiment: as above; settings: 14 days after application
In short: as §2

[17] = test system: large crabgrass (Digitaria sanguinalis, DIGSA); experiment: as above; settings: 14 days after application
In short: as §2

[18] = test system: redroot pigweed (Amaranthus retroflexus, AMARE); experiment: as above; settings: 14 days after application
In short: as §2

[19] = test system: sicklepod (Cassia obtusifolia, CASOB); experiment: as above; settings: 14 days after application
In short: as §2

[20] = test system: velvetleaf (Abutilon theophrasti, ABUTH); experiment: as above; settings: 14 days after application
In short: as §2

Compound | phytotoxicity rating SORHA ([1]; 125 g ai/ha) | phytotoxicity rating SORHA ([1]; 500 g ai/ha) | phytotoxicity rating ECHCG ([2]; 125 g ai/ha) | phytotoxicity rating ECHCG ([2]; 500 g ai/ha) | phytotoxicity rating AMBEL ([3]; 125 g ai/ha) | phytotoxicity rating AMBEL ([3]; 500 g ai/ha) | phytotoxicity rating SETVI ([4]; 125 g ai/ha) | phytotoxicity rating SETVI ([4]; 500 g ai/ha) | phytotoxicity rating IPOHE ([5]; 125 g ai/ha) | phytotoxicity rating IPOHE ([5]; 500 g ai/ha) | phytotoxicity rating CHEAL ([6]; 125 g ai/ha) | phytotoxicity rating CHEAL ([6]; 500 g ai/ha) | phytotoxicity rating DIGSA ([7]; 125 g ai/ha) | phytotoxicity rating DIGSA ([7]; 500 g ai/ha) | phytotoxicity rating AMARE ([8]; 125 g ai/ha) | phytotoxicity rating AMARE ([8]; 500 g ai/ha) | phytotoxicity rating CASOB ([9]; 125 g ai/ha) | phytotoxicity rating CASOB ([9]; 500 g ai/ha) | phytotoxicity rating ABUTH ([10]; 125 g ai/ha) | phytotoxicity rating ABUTH ([10]; 500 g ai/ha) | other results
COc1nc(OC)nc(Oc2cc(-c3nc(C)n(C(F)F)c3Cl)c(F)cc2Cl)n1 [Compound 2-4, 5-chloro-4-(4-chloro-2-fluoro-5-(4,6-dimethoxy-2-triazinyloxy)phenyl)-1-difluoromethyl-2-methylimidazole] | 0 | 40 | 0 | 0 | 10 | 0 | 20 | 95 | 10 | 0 | 70 | 100 | 0 | 50 | 70 | 100 | 0 | 10 | 10 | 70 | AMBEL phytotoxicity rating (0-100) ([11]; 63 g al/ha): 0; AMBEL phytotoxicity rating (0-100) ([11]; 500 g al/ha): 0; SORHA phytotoxicity rating (0-100) ([12]; 63 g al/ha): 0; SORHA phytotoxicity rating (0-100) ([12]; 500 g al/ha): 50; ECHCG phytotoxicity rating (0-100) ([13]; 63 g al/ha): 0; ECHCG phytotoxicity rating (0-100) ([13]; 500 g al/ha): 0; SETVI phytotoxicity rating (0-100) ([14]; 63 g al/ha): 0; SETVI phytotoxicity rating (0-100) ([14]; 500 g al/ha): 50; IPOHE phytotoxicity rating (0-100) ([15]; 63 g al/ha): 0; IPOHE phytotoxicity rating (0-100) ([15]; 500 g al/ha): 75; CHEAL phytotoxicity rating (0-100) ([16]; 63 g al/ha): 0; CHEAL phytotoxicity rating (0-100) ([16]; 500 g al/ha): 70; DIGSA phytotoxicity rating (0-100) ([17]; 63 g al/ha): 0; DIGSA phytotoxicity rating (0-100) ([17]; 500 g al/ha): 10; AMARE phytotoxicity rating (0-100) ([18]; 63 g al/ha): 0; AMARE phytotoxicity rating (0-100) ([18]; 500 g al/ha): 90; CASOB phytotoxicity rating (0-100) ([19]; 63 g al/ha): 0; CASOB phytotoxicity rating (0-100) ([19]; 500 g al/ha): 0; ABUTH phytotoxicity rating (0-100) ([20]; 63 g al/ha): 0; ABUTH phytotoxicity rating (0-100) ([20]; 500 g al/ha): 80
O=c1n(CCCF)nnn1-c1cc(Oc2ncccn2)c(Cl)cc1F [Compound 6-10, 1-[4-chloro-2-fluoro-5-(2-pyrimidyloxy)phenyl]-4-(3-fluoropropyl)-1,4-dihydro-5-oxo-5H-tetrazole] | 100 | 100 | 100 | 100 | 100 | 100 | 100 | 100 | 100 | 100 | 100 | 100 | 100 | 100 | 100 | 100 | 40 | 100 | 100 | 100 | AMBEL phytotoxicity rating (0-100) ([11]; 63 g al/ha): 30; AMBEL phytotoxicity rating (0-100) ([11]; 500 g al/ha): 100; SORHA phytotoxicity rating (0-100) ([12]; 63 g al/ha): 0; SORHA phytotoxicity rating (0-100) ([12]; 500 g al/ha): 100; ECHCG phytotoxicity rating (0-100) ([13]; 63 g al/ha): 30; ECHCG phytotoxicity rating (0-100) ([13]; 500 g al/ha): 100; SETVI phytotoxicity rating (0-100) ([14]; 63 g al/ha): 30; SETVI phytotoxicity rating (0-100) ([14]; 500 g al/ha): 100; IPOHE phytotoxicity rating (0-100) ([15]; 63 g al/ha): 100; IPOHE phytotoxicity rating (0-100) ([15]; 500 g al/ha): 100; CHEAL phytotoxicity rating (0-100) ([16]; 63 g al/ha): 90; CHEAL phytotoxicity rating (0-100) ([16]; 500 g al/ha): 100; DIGSA phytotoxicity rating (0-100) ([17]; 63 g al/ha): 50; DIGSA phytotoxicity rating (0-100) ([17]; 500 g al/ha): 100; AMARE phytotoxicity rating (0-100) ([18]; 63 g al/ha): 90; AMARE phytotoxicity rating (0-100) ([18]; 500 g al/ha): 100; CASOB phytotoxicity rating (0-100) ([19]; 63 g al/ha): 30; CASOB phytotoxicity rating (0-100) ([19]; 500 g al/ha): 100; ABUTH phytotoxicity rating (0-100) ([20]; 63 g al/ha): 100; ABUTH phytotoxicity rating (0-100) ([20]; 500 g al/ha): 100
